Structures are written as SMILES.

In the assay the target is Recombinant human LSD1 (Homo sapiens, UniProt O60341). Briefly: LSD1 inhibition assay (HTRF LSD1 Histone H3K4 mono-demethylation assay, me1->me0). The assay is classed as biochemical. Particulars: 20 nM recombinant human LSD1, 95 nM H3K4(me1) biotinylated peptide, 15 min preincubation, 60 min at 25° C., read-out: LSD1 inhibition IC50 (nM range). The gist of the method:
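Recombinant human LSD1 (20 nM) pre-incubated 15 min with 10 semi-log compound doses, then 95 nM biotinylated H3K4me1 peptide for 60 min at 25 °C in pH 8.5 Tris/NaCl buffer with 10 μM FAD, 1 mM DTT. HTRF me0-antibody read after 90 min; IC50 from 4-parameter fit.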
In general terms: TR-FRET usually uses a lanthanide donor and a delayed reading to cut background.
In general, IC50 refers to the concentration needed to halve the response being measured. `N#Cc1ccc(-c2cccc(CN3C[C@H](N)C[C@H](F)C3)c2Cl)cc1F` [Example 285, 3'-{[(3R,5S)-3-amino-5-fluoropiperidin-1-yl]methyl}-2'-chloro-3-fluoro-[1,1'-biphenyl]-4-carbonitrile]: the IC50 was 100 to 1000 nM.
Consider `N#Cc1ccc(-c2cccc(CN3CC4CCC(C3)N4)c2C2CC2)cc1F` [Example 210, 2'-cyclopropyl-3'-({3,8-diazabicyclo[3.2.1]octan-3-yl}methyl)-3-fluoro-[1,1'-biphenyl]-4-carbonitrile], for which the concentration for half-maximal inhibition (IC50) fell in the range of 10 to 25 nM.
Turning to `CN1CC2CN(Cc3cccc(-c4ccc(C#N)c(F)c4)c3C3CC3)CC21` (centres unmarked) [Example 277, 2'-cyclopropyl-3-fluoro-3'-({6-methyl-3,6-diazabicyclo[3.2.0]heptan-3-yl}methyl)-[1,1'-biphenyl]-4-carbonitrile], the IC50 lay in the range of 25 to 100 nM.
Regarding `Cc1cc(CN2[C@@H]3CC[C@H]2[C@@H](N)C3)c(C2CC2)c(-c2ccc(C#N)c(F)c2)c1` (racemic) [Example 304, 3'-{[(1S,2S,4R)-2-amino-7-azabicyclo[2.2.1]heptan-7-yl]methyl}-2'-cyclopropyl-3-fluoro-5'-methyl-[1,1'-biphenyl]-4-carbonitrile], the IC50 lay in the range of 10 to 25 nM.
Take `N#Cc1ccc(-c2cc(CC3CNCCO3)ccc2N2CCCOCC2)cc1F` (centres unmarked) [Example 143, 3-fluoro-5'-[(morpholin-2-yl)methyl]-2'-(1,4-oxazepan-4-yl)-[1,1'-biphenyl]-4-carbonitrile]: the IC50 was in the range of 100 to 1000 nM.
As to `COc1ccc(CC2CNCCO2)cc1-c1ccc(C#N)c(F)c1` (centres unmarked) [Example 142, 3-fluoro-2′-methoxy-5′-[(morpholin-2-yl)methyl]-[1,1′-biphenyl]-4-carbonitrile], the IC50 is more than 1000 nM.
`N#Cc1ccc(-c2cccc(CN3C[C@]4(N)CC[C@H]3C4)c2-c2cnco2)cc1F` [Example 335, 3'-{[(1S,4S)-4-amino-2-azabicyclo[2.2.1]heptan-2-yl]methyl}-3-fluoro-2'-(1,3-oxazol-5-yl)-[1,1'-biphenyl]-4-carbonitrile]: the IC50 was less than 10 nM.
Turning to `N#Cc1ccc(-c2cc(CN3[C@@H]4CC[C@H]3[C@@H](N)C4)ccc2CC2COC2)cc1F` (racemic) [Example 246, 5'-{[(1S,2S,4R)-2-amino-7-azabicyclo[2.2.1]heptan-7-yl]methyl}-3-fluoro-2'-[(oxetan-3-yl)methyl]-[1,1'-biphenyl]-4-carbonitrile], the IC50 lay in the range of 100 to 1000 nM.
With `Cc1cnsc1-c1c(CC2CNCCO2)cccc1-c1ccc(C#N)c(F)c1` (centres unmarked) [Example 45, 3-fluoro-2′-(4-methyl-1,2-thiazol-5-yl)-3′-[(morpholin-2-yl)methyl]-[1,1′-biphenyl]-4-carbonitrile], the IC50 was in the range of 100 to 1000 nM.
`Cc1cc(CN2C[C@@H]3C[C@H]2CN3)c(Cl)c(-c2ccc(C#N)c(F)c2)c1` [Example 299, 2′-chloro-3'-{[(1S,4S)-2,5-diazabicyclo[2.2.1]heptan-2-yl]methyl}-3-fluoro-5'-methyl-[1,1'-biphenyl]-4-carbonitrile]: the IC50 lay in the range of 25 to 100 nM.
`N#Cc1ccc(-c2cccc(CN3[C@@H]4CC[C@H]3[C@@H](N)C4)c2-c2ccns2)cc1F` [Example 192, N[C@H]1C[C@H]2CC[C@@H]1N2Cc3cccc(c4ccc(C#N)c(F)c4)c3c5ccns5]: the IC50 was less than 10 nM.
With `CC1(C)CN(Cc2cccc(-c3ccc(C#N)c(F)c3)c2-c2ccns2)CC1N` (centres unmarked) [Example 198, 3'-[(4-amino-3,3-dimethylpyrrolidin-1-yl)methyl]-3-fluoro-2'-(1,2-thiazol-5-yl)-[1,1'-biphenyl]-4-carbonitrile] the figure was 10 to 25 nM.
Turning to `N#Cc1ccc(-c2cccc(Cn3cc4c(n3)CNCC4)c2-c2cncs2)cc1F` [Example 236, 3-fluoro-3'-({2H,4H,5H,6H,7H-pyrazolo[3,4-c]pyridin-2-yl}methyl)-2'-(1,3-thiazol-5-yl)-[1,1'-biphenyl]-4-carbonitrile], the IC50 fell in the range of 25 to 100 nM.
In the case of `N#Cc1ccc(-c2cccc(C[C@@H]3CNCCO3)c2-c2ocnc2F)cc1F` (single isomer, unassigned) [Example 26], the IC50 is less than 10 nM.
With `CN[C@@H]1C[C@@H]2CC[C@H]1N2Cc1cccc(-c2ccc(C#N)cc2)c1-c1ccns1` (single isomer, unassigned) [Example 173], the IC50 was less than 10 nM.
Take `N#Cc1ccc(-c2cccc(N3CCC4NCCC4C3)c2-c2ccns2)cc1F` (centres unmarked) [Example 108, 3-fluoro-3'-{octahydro-1H-pyrrolo[3,2-c]pyridin-5-yl}-2'-(1,2-thiazol-5-yl)-[1,1'-biphenyl]-4-carbonitrile]: the concentration for half-maximal inhibition (IC50) was less than 10 nM.
In the case of `Cc1cc(CC2CNCCO2)c(-c2cncs2)c(-c2ccc(C#N)cc2)c1` (centres unmarked) [Example 39, 5′-methyl-3′-[(morpholin-2-yl)methyl]-2′-(1,3-thiazol-5-yl)-[1,1′-biphenyl]-4-carbonitrile], the IC50 lay within 10 to 25 nM.
Turning to `N#Cc1ccc(-c2cccc(CC3CNCCO3)c2N2CC(O)C2)cc1F` (centres unmarked) [Example 159, 3-fluoro-2′-(3-hydroxyazetidin-1-yl)-3′-[(morpholin-2-yl)methyl]-[1,1′-biphenyl]-4-carbonitrile], the IC50 was more than 1000 nM.
Then `COC1CCN(c2ccc(CC3CNCCO3)cc2-c2ccc(C#N)c(F)c2)CC1` (centres unmarked) [Example 52, 3-fluoro-2′-(4-methoxypiperidin-1-yl)-5′-[(morpholin-2-yl)methyl]-[1,1′-biphenyl]-4-carbonitrile], with 100 to 1000 nM; and `N#Cc1ccc(-c2cc(CN3[C@@H]4CC[C@H]3[C@@H](N)C4)ccc2-c2nccs2)cc1F` (racemic) [Example 253, 5'-{[(1S,2S,4R)-2-amino-7-azabicyclo[2.2.1]heptan-7-yl]methyl}-3-fluoro-2'-(1,3-thiazol-2-yl)-[1,1'-biphenyl]-4-carbonitrile], with 25 to 100 nM; and `Cc1cccc(-c2ccc(CN3[C@@H]4CC[C@H]3[C@@H](N)C4)cc2-c2ccc(C#N)c(F)c2)n1` (racemic) [Example 256, 5'-{[(1S,2S,4R)-2-amino-7-azabicyclo[2.2.1]heptan-7-yl]methyl}-3-fluoro-2'-(6-methylpyridin-2-yl)-[1,1'-biphenyl]-4-carbonitrile], with 25 to 100 nM.
Regarding `N#Cc1ccc(-c2cccc(CN3CCCC4(CCN4)C3)c2C2CC2)cc1F` (centres unmarked) [Example 267, 2'-cyclopropyl-3'-({1,6-diazaspiro[3.5]nonan-6-yl}methyl)-3-fluoro-[1,1'-biphenyl]-4-carbonitrile], the IC50 was in the range of 100 to 1000 nM.
Regarding `CN[C@H]1C[C@H]2CC[C@@H]1N2Cc1cccc(-c2ccc(C#N)c(F)c2)c1C1CC1` (racemic) [Example 175], the half-maximal inhibitory concentration (IC50) lay within 10 to 25 nM.
In the case of `N#Cc1ccc(-c2cccc(CC3CNCCO3)c2-c2ccno2)cc1` (centres unmarked) [Example 12, 3′-[(morpholin-2-yl)methyl]-2′-(1,2-oxazol-5-yl)-[1,1′-biphenyl]-4-carbonitrile], the IC50 is 10 to 25 nM.
With `N#Cc1ccc(-c2cccc(CN3C[C@]4(N)CC[C@H]3C4)c2N2CCC2)cc1F` [Example 172, N[C@@]12CC[C@@H](C1)N(Cc3cccc(c4ccc(C#N)c(F)c4)c3N5CCC5)C2] the figure was 10 to 25 nM.
Consider `Cc1c(CN2[C@@H]3CC[C@H]2[C@@H](N)C3)cccc1-c1ccc(C#N)c(F)c1` (racemic) [Example 306, 3'-{[(1S,2S,4R)-2-amino-7-azabicyclo[2.2.1]heptan-7-yl]methyl}-3-fluoro-2'-methyl-[1,1'-biphenyl]-4-carbonitrile], for which the IC50 lay within 100 to 1000 nM.
With `CN[C@H]1C[C@H]2CC[C@@H]1N2Cc1cccc(-c2ccc(C#N)cc2)c1-c1ccns1` (single isomer, unassigned) [Example 182], the IC50 is less than 10 nM.
With `N#Cc1ccc(-c2cc(F)cc(CC3CNCCO3)c2-c2cncs2)cc1F` (centres unmarked) [Example 19, 3,5′-difluoro-3′-[(morpholin-2-yl)methyl]-2′-(1,3-thiazol-5-yl)-[1,1′-biphenyl]-4-carbonitrile], the IC50 was in the range of 10 to 25 nM.
As for `N#Cc1ccc(-c2cccc(CN3CC4CCC3C(N)C4)c2C2CC2)cc1F` (centres unmarked) [Example 227, 3'-({6-amino-2-azabicyclo[2.2.2]octan-2-yl}methyl)-2'-cyclopropyl-3-fluoro-[1,1'-biphenyl]-4-carbonitrile], the IC50 fell in the range of 25 to 100 nM.
`COCc1ncc(-c2ccc(CC3CNCCO3)cc2-c2ccc(C#N)c(F)c2)o1` (centres unmarked) [Example 130, 3-fluoro-2′-[2-(methoxymethyl)-1,3-oxazol-5-yl]-5′-[(morpholin-2-yl)methyl]-[1,1′-biphenyl]-4-carbonitrile]: the IC50 is more than 1000 nM.
Then `N#Cc1ccc(-c2cccc(CC3CNCCO3)c2-c2cocn2)cc1F` (centres unmarked) [Example 92, 3-fluoro-3′-[(morpholin-2-yl)methyl]-2′-(1,3-oxazol-4-yl)-[1,1′-biphenyl]-4-carbonitrile], with 100 to 1000 nM.
Regarding `N#Cc1ccc(-c2cccc(C[C@@H]3CNCCO3)c2-c2ccno2)cc1` (single isomer, unassigned) [Example 7], the IC50 lay within 10 to 25 nM.
With `N#Cc1ccc(-c2cc(CC3CN4CCC4CO3)ccc2N2CCC2)cc1F` (centres unmarked) [Example 160, 2′-(azetidin-1-yl)-3-fluoro-5′-({4-oxa-1-azabicyclo[4.2.0]octan-3-yl}methyl)-[1,1′-biphenyl]-4-carbonitrile], the IC50 was more than 1000 nM.
Turning to `COC1(C)CCN(c2ccc(CN3[C@@H]4CC[C@H]3[C@@H](N)C4)cc2-c2ccc(C#N)c(F)c2)CC1` (racemic) [Example 232, 5'-{[(1S,2S,4R)-2-amino-7-azabicyclo[2.2.1]heptan-7-yl]methyl}-3-fluoro-2'-(4-methoxy-4-methylpiperidin-1-yl)-[1,1'-biphenyl]-4-carbonitrile], the IC50 was in the range of 10 to 25 nM.
Regarding `N#Cc1ccc(-c2cccc(CN3[C@H]4CC[C@@H]3[C@H](N)C4)c2C2CC2)cc1F` (single isomer, unassigned) [Example 186], the 50% inhibitory concentration (IC50) fell in the range of 10 to 25 nM.

For the origin of these results see patent US20260209214A1, “LSD1 MODULATORS” (RECURSION PHARMACEUTICALS, INC., priority 2022, published 2026).
